# According to patent publication US5429774A, “Benzopyran compounds” (Transitions Optical, Inc., priority 1994, dated 1995):
# Assay: photochromic response on an optical bench in ethyl cellulose resin (lambda max, sensitivity, saturation optical density, bleach rate)
# Type: physicochemical
# Conditions: for Δ OD @ SAT (saturation optical density): UV exposure 15 minutes; for Δ OD @ SAT (saturation optical density) / Sensitivity Δ OD/MIN / Bleach rate T 1/2: ethyl cellulose resin; for Lambda max Band A / Lambda max Band B: activated (colored) form, in ethyl cellulose resin; for sensitivity versus Comparative Examples (in words): comparison of Table 1 results; for Sensitivity Δ OD/MIN: first five (5) seconds of UV exposure, expressed on a per minute basis, 75° F. (23.9° C.); for Bleach rate T 1/2: time to one half the highest absorbance at room temperature (72° F., 22.2° C.) after removal of activating light
# Experimental: The photochromic compounds prepared in the Examples and the Comparative Examples were incorporated into an ethyl cellulose resin by the following procedure. About 30 milligrams of the photochromic compound was added to 2.0 grams of a 10 weight percent ethyl cellulose solution in toluene. The photochromic compound was dissolved by warming and stirring on a steam bath. Approximately 2.0 grams of the resultant solution was deposited on the edge of a 75 by 25 millimeter (mm) glass slide. Using a draw down bar, a 0.2 mm layer of photochromic resin solution was placed evenly on the slide and permitted to dry.
# The photochromic test samples prepared in Part A were tested for photochromic response rates on an optical bench. Prior to testing on the optical bench, the photochromic test samples were exposed to 365 nanometer (nm) ultraviolet light for about 15 minutes to activate the photochromic compounds and then placed into a 76° C. oven for about 15 minutes to bleach or inactivate the photochromic compounds. The test samples were then cooled to room temperature, exposed to fluorescent room lighting for at least 2 hours and then kept covered for at least 2 hours prior to testing on an optical bench maintained at 75° F. (23.9° C.).
# The optical bench comprises a 150 watt Xenon arc lamp, a tungsten lamp, power supplies for both lamps, condensing lenses as needed to maintain collimated light beams from both lamps, a remote controlled shutter, a copper sulfate bath acting as a heat sink for the arc lamp, a Schott WG-320 nm cut-off filter which removes short wavelength radiation, neutral density filter(s), a sample holder in which the sample to be tested is inserted, a photopic filter, light detector, and radiometer assembly, a strip chart recorder, and a means for maintaining the alignment of the aforestated components during testing.
# Change in optical density (ΔOD) of a sample was determined by inserting a photochromic test sample in the bleached state into the sample holder, adjusting the transmittance scale to 100%, opening the shutter from the Xenon lamp to provide ultraviolet radiation to change the sample from the bleached state to an activated (darkened) state, measuring the transmittance through the sample. The transmittance was measured by directing a beam of light from the tungsten lamp at a small angle normal to the surface of the sample, through the sample, and to a photopic filter, light detector and radiometer assembly. The photopic filter passes wavelengths such that the detector mimics the response of the human eye and produces output signals that are processed by the radiometer. The change in optical density was calculated according to the formula Δ OD=log(100/% Ta) where % Ta is the percent transmittance in the activated state and the logarithm is to the base 10.
# The Δ OD/Min, which represents the sensitivity of the photochromic compound's response to UV light, was measured over the first five (5) seconds of UV exposure, then expressed on a per minute basis. The saturation optical density (OD) was taken under identical conditions as the Δ OD/Min, except UV exposure was continued for 15 minutes. The lambda max value, which is the maximum absorption of the activated (colored) form of the photochromic compound in ethyl cellulose resin, may occur at one or two wavelengths reported as Band A and Band B in Table 1. The Bleach Rate T 1/2 is the time interval in seconds for the absorbance of the activated form of the benzopyran in the test sample to reach one half the highest absorbance at room temperature (72° F., 22.2° C.) after removal of the source of activating light.
Compound,Δ OD @ SAT (saturation optical density),Lambda max Band A,Lambda max Band B,sensitivity versus Comparative Examples (in words),Sensitivity Δ OD/MIN,Bleach rate T 1/2
"COc1ccccc1C1(c2cc3ccccc3o2)C=Cc2c(ccc3sc4ccccc4c23)O1 (stereo not drawn) [Example 10, 3-(2-methoxyphenyl)-3-(benzofur-2-yl)-3H-benzo(b)thieno[3,2-f]-1-benzopyran]",0.98,482,532,greater than Comparative Example 2,0.66 OD/MIN,> 20 min
"C1=CC(c2ccccc2)(c2ccccc2)Oc2ccc3oc4ccccc4c3c21 [Comparative Example 2, 3,3-diphenyl-(3H)-benzo(b)furo[3,2-f]-1-benzopyran, reference compound]",0.18,430,522,–,0.42 OD/MIN,1.42 min
"C1=CC(c2ccccc2)(c2ccccc2)Oc2ccc3ccccc3c21 [Comparative Example 1, 3,3-diphenyl-3H-naphtho [2,1-b]pyran, reference compound]",0.31,432,–,–,0.87 OD/MIN,0.533 min
"C1=CC(c2ccccc2)(c2csc3ccccc23)Oc2ccc3oc4ccccc4c3c21 (stereo not drawn) [Example 9, 3-phenyl-3-(benzothiophen-3-yl)-3H-benzo(b)furo[3,2-f]-1-benzopyran]",0.18,444,515,–,0.22 OD/MIN,2.97 min
"Fc1ccccc1C1(c2cc3ccccc3o2)C=Cc2c(ccc3ccccc23)O1 (stereo not drawn) [Example 2, 3-(2-fluorophenyl)-3-(benzofur-2-yl)-3H-naphtho[2,1-b]pyran]",0.84,462,–,greater than Comparative Example 2,0.59 OD/MIN,> 30 min
"COc1ccccc1C1(c2cc3ccccc3o2)C=Cc2cc3oc4ccccc4c3cc2O1 (stereo not drawn) [Example 6, 2-(2-methoxyphenyl)-2-(benzofur-2-yl)-2H-benzo(b)furo[2,3-g]-benzopyran]",0.86,448,507,greater than Comparative Example 2,0.49 OD/MIN,> 20 min
"3-(2-fluorophenyl)-3-(benzofur-2-yl)-3H-benzo(b)thieno[3,2-f]-1-benzopyran [Example 7]",0.27,482,–,–,0.27 OD/MIN,10.3 min
"C1=CC(c2ccccc2)(c2csc3ccccc23)Oc2ccc3ccccc3c21 (stereo not drawn) [Example 5, 3-phenyl-3-(benzothiophen-3-yl)-3H-naphtho[2,1-b]pyran]",0.34,440,–,greater than Comparative Example 2,0.62 OD/MIN,1.55 min
"C1=CC(c2ccccc2)(c2cc3ccccc3s2)Oc2ccc3oc4ccccc4c3c21 (stereo not drawn) [Example 8, 3-phenyl-3-(benzothiophen-2-yl)-3H-benzo(b)furo[3,2-f]-1-benzopyran]",0.23,476,545,–,0.25 OD/MIN,3.77 min
"C1=CC(c2ccccc2)(c2cc3ccccc3o2)Oc2ccc3ccccc3c21 (stereo not drawn) [Example 1, 3-phenyl-3-(benzofur-2-yl)-3H-naphtho[2,1-b]pyran]",0.95,467,–,greater than Comparative Examples 1 and 2,1.15 OD/MIN,5.75 min
"C1=CC(c2ccccc2)(c2cc3ccccc3o2)Oc2ccc3oc4ccccc4c3c21 (stereo not drawn) [Example 4, 3-phenyl-3-(benzofur-2-yl)-3H-benzo(b)furo[3,2-f]-1-benzopyran]",0.34,453,482,–,0.26 OD/MIN,5.18 min
"C1=CC(c2ccccc2)(c2cc3ccccc3s2)Oc2ccc3ccccc3c21 (stereo not drawn) [Example 3, 3-phenyl-3-(benzothiophen-2-yl)-3H-naphtho[2,1-b]pyran]",0.52,460,–,greater than Comparative Example 2,0.76 OD/MIN,2.03 min
